Entries after “also recorded” stand apart in the source; their conditions may differ. Where two headings read alike, the source gives them in different places. Bridges are numbered along the chain shown (N, C = ends). Roman numbers before positions name the chains, in order. Where no end group is shown, it is not given here.
Experiments:
rNaV1.2 = biological target: T1, rNaV1.2 (Rattus norvegicus, UniProt P04775); assay: Two-electrode voltage-clamp of NaV1.2 expressed in Xenopus laevis oocytes; assay type: cell-based; settings: for EC50: read-out: half-maximal effective concentration (EC50), NaV1.2
T1 construct: expressed in transfected cells; host or cells: Xenopus laevis oocytes injected with cRNA
Description: (§1) For the expression of NaV channels (hNaV1.1, rNaV1.2, rNaV1.3, rNaV1.4, hNaV1.5, mNaV1.6, rNaV1.8, the invertebrate channels BgNaV1.1, VdNaV1, and the auxiliary subunits rβ1, hβ1, and TipE) in Xenopus oocytes, the linearized plasmids were transcribed using the T7 or SP6 mMessage-mMachine Transcription Kit (Thermo Fisher Scientific, Waltham, MA, USA). The harvesting of stage V–VI oocytes from anesthetized female X. laevis frogs was previously described with a protocol adjustment in which the frogs were anesthetized by placement in 0.1% tricaine (amino benzoic acid ethyl ester; Millipore Sigma, Burlington, MA, USA) solution. Oocytes were injected with 50 nL of cRNA at a concentration of 1 ng/nL using a microinjector (Drummond Scientific Company, Broomall, PA, USA). The oocytes were incubated in a solution containing (mM) the following: NaCl, 96; KCl, 2; CaCl2, 1.8; MgCl2, 2; and HEPES, 5 (pH 7.4). This solution was supplemented with 50 mg/L gentamicin sulfate.
(§2) Two-electrode voltage-clamp recordings were performed at room temperature (18–22 °C) using a GeneClamp 500 amplifier (Molecular Devices, San Jose, CA, USA) controlled by a pClamp data acquisition system (Axon Instruments, Union City, CA, USA). Whole-cell currents from oocytes were recorded 1–4 d after mRNA injection. Bath solution composition was (mM) as follows: NaCl, 96; KCl, 2; CaCl2, 1.8; MgCl2, 2; and HEPES, 5 (pH 7.4). Voltage and current electrodes were filled with 3 M KCl. The resistances of both electrodes were kept between 0.8 and 1.5 MΩ. The elicited currents were filtered at 1 kHz and sampled at 20 kHz by using a 4-pole low-pass Bessel filter. Leak subtraction was performed using a -P/4 protocol.
(§3) For the electrophysiological analysis of toxins, a number of protocols were applied from a holding potential of −90 mV with a start-to-start frequency of 0.2 Hz. Na^+ current traces were evoked by 100-ms depolarizations to Vmax (the voltage corresponding to maximal Na^+ current in control conditions). The current–voltage relationships were determined by 50-ms step depolarizations between −90 and 70 mV, using 5 mV increments. The Na^+ conductance (gNa) was calculated from the currents according to Ohm’s law: gNa = INa/(V − Vrev), where INa represents the Na^+ current peak amplitude at a given test potential V, and Vrev is the reversal potential. The values of gNa were plotted as a function of voltage and fitted using the Boltzmann function: gNa/gmax = [1 + (exp(Vg − V)/k)] −1, where gmax represents maximal gNa, Vg is the voltage corresponding to half-maximal conductance, and k is the slope factor. Toxin–induced effects on the steady–state inactivation were investigated by using a standard two-step protocol. In this protocol, 100 ms conditioning 5 mV step prepulses ranging from −90 to 70 mV were followed by a 50-ms test pulse to −30 or −10 mV. Data were normalized to the maximal Na^+ current amplitude, plotted against prepulse potential, and fitted by using the Boltzmann function: INa/Imax = {(1 − C)/(1 + exp[(V − Vh)/k)]} + C, where Imax is the maximal INa, Vh is the voltage corresponding to half-maximal inactivation, V is the test voltage, k is the slope factor, and C is a constant representing a non-inactivating persistent fraction (close to 0 in control). […] I30ms/Ipeak was measured at the same test voltage after addition of the toxin. […]

mNaV1.6 = biological target: T2, mNaV1.6 (Mus musculus, UniProt Q9WTU3); assay: Two-electrode voltage-clamp of NaV1.6 expressed in Xenopus laevis oocytes; assay type: cell-based; settings: for EC50: amplitude of toxin-induced effect at 30 ms (I30ms), Hill fit, Xenopus oocytes, means ± sem, n ≥ 5, read-out: half-maximal effective concentration (EC50), NaV1.6
T2 construct: expressed in transfected cells; host or cells: Xenopus laevis oocytes injected with cRNA
Description: as §1, §2
as §3, with “protocol.” for “protocol. In this protocol, 100 ms conditioning 5 mV step prepulses ranging from −90 to 70 mV were followed by a 50-ms test pulse to −30 or −10 mV. Data were normalized to the maximal Na^+ current amplitude, plotted against prepulse potential, and fitted by using the Boltzmann function: INa/Imax = {(1 − C)/(1 + exp[(V − Vh)/k)]} + C, where Imax is the maximal INa, Vh is the voltage corresponding to half-maximal inactivation, V is the test voltage, k is the slope factor, and C is a constant representing a non-inactivating persistent fraction (close to 0 in control).”

BgNaV1 = BgNaV1 (Blattella germanica, UniProt O01306); assay: Two-electrode voltage-clamp of BgNaV1 expressed in Xenopus laevis oocytes; assay type: cell-based, insect; settings: for EC50: amplitude of toxin-induced effect at 30 ms (I30ms), Hill fit, Xenopus oocytes, means ± sem, n ≥ 5, read-out: half-maximal effective concentration (EC50), BgNaV1
Description: as §1, §2
as §3, with “protocol.” for “protocol. In this protocol, 100 ms conditioning 5 mV step prepulses ranging from −90 to 70 mV were followed by a 50-ms test pulse to −30 or −10 mV. Data were normalized to the maximal Na^+ current amplitude, plotted against prepulse potential, and fitted by using the Boltzmann function: INa/Imax = {(1 − C)/(1 + exp[(V − Vh)/k)]} + C, where Imax is the maximal INa, Vh is the voltage corresponding to half-maximal inactivation, V is the test voltage, k is the slope factor, and C is a constant representing a non-inactivating persistent fraction (close to 0 in control).”

mice [1] = assay: Toxicity in mice; assay type: in vivo, adult male CD-1 mice; settings: intraperitoneal, six animals per sample, 24 hours
Experimental: The care and use of animals were performed in an agreement with the requirements of local and international legislation as well as of the Directive 2010/63/EU for animal experiments.
Adult male CD-1 mice weighing 20–22 g were kept at room temperature with a 12-h light/dark cycle and with ad libitum access to food and water. Each animal was used only once and was euthanized in the CO2 chamber immediately after completion of the experiment. Animal procedures were approved by the Animal Care and Use Committee of the PIBOC FEB RAS.
The peptides (0.15–300 μg) were dissolved in 100 μL of sterile saline (0.9% NaCl) and injected intraperitoneally. Six animals were used per sample. To assess peptide toxicity, the maximum non-toxic dose was determined as an amount (mg) of the tested peptide per kg of the mouse weight, at which there was no observed toxic or adverse effect within 24 hours.

mice [2] = settings: cited from earlier work
Description: The only difference observed within our electrophysiological experiments that may underlie this phenomenon is a different activity of both toxins on NaV1.2 and NaV1.3 subtypes (Figure 5, Table 2). Even though tetrodotoxin (TTX)-sensitive brain-type sodium channel isoforms NaV1.1–NaV1.3 and NaV1.6 are the main channels e ...

rNaV1.3 = assay: Two-electrode voltage-clamp of NaV1.3 expressed in Xenopus laevis oocytes; assay type: cell-based, rat; settings: 10 μM toxin
Description: as §1, with “Oocytes were injected with 50 nL of cRNA at a concentration of 1 ng/nL using a microinjector (Drummond Scientific Company, Broomall, PA, USA). The oocytes were incubated in a solution containing (mM) the following: NaCl, 96; KCl, 2; CaCl2, 1.8; MgCl2, 2; and HEPES, 5 (pH 7.4). This solution was supplemented with 50 mg/L gentamicin sulfate.” left out
Two-electrode voltage-clamp recordings were performed at room temperature (18–22 °C) using a GeneClamp 500 amplifier (Molecular Devices, San Jose, CA, USA) controlled by a pClamp data acquisition system (Axon Instruments, Union City, CA, USA). Whole-cell currents from oocytes were recorded 1–4 d after mRNA injection. […]
For the electrophysiological analysis of toxins, a number of protocols were applied from a holding potential of −90 mV with a start-to-start frequency of 0.2 Hz. […] The current–voltage relationships were determined by 50-ms step depolarizations between −90 and 70 mV, using 5 mV increments. […] I30ms/Ipeak was measured at the same test voltage after addition of the toxin. […]

[3] = system: NaV channels (NaV1.1–NaV1.6, NaV1.8, BgNaV1, VdNaV1); assay: Electrophysiological screening on nine NaV subtypes (overall statements); assay type: cell-based; settings: for modulation of NaV channels (in words): 10 μM toxin, Xenopus oocytes; for phyla selectivity (in words): mammalian vs. insect/arachnid, 10 μM
Description: as §1, §2
as §3, with “protocol.” for “protocol. In this protocol, 100 ms conditioning 5 mV step prepulses ranging from −90 to 70 mV were followed by a 50-ms test pulse to −30 or −10 mV. Data were normalized to the maximal Na^+ current amplitude, plotted against prepulse potential, and fitted by using the Boltzmann function: INa/Imax = {(1 − C)/(1 + exp[(V − Vh)/k)]} + C, where Imax is the maximal INa, Vh is the voltage corresponding to half-maximal inactivation, V is the test voltage, k is the slope factor, and C is a constant representing a non-inactivating persistent fraction (close to 0 in control).”

[4] = Secondary structure content by CD spectroscopy; assay type: physicochemical; settings: water, 20 °C; for Unordered / α-Helices αD / α-Helices αR / α-Helices αtot: CONTIN; for α-Helices αD: distorted; for α-Helices αR: regular; for α-Helices αtot: sum
Experimental: CD spectra were measured in the range from 320 to 190 nm with a Chirascan-plus spectropolarimeter (Applied Photophysics, Leatherhead, UK). The instrument was calibrated with 10-camphorsulfonic acid ammonium salt, and a ratio of 2:1 was found between the positive CD band at 290 nm and the negative CD band at 192 nm. The measurements were carried out in bidistilled water at 20 °C using 0.1- and 1-cm path length cells in amide and aromatic regions, respectively. In the amide region (190–240 nm) of the CD spectrum, molar ellipticity [θ]λ (deg cm^2 dmol^−1) was calculated as [θ]λ = θobs × MRW/10 × C × L, where θobs is the observed ellipticity in degrees, MRW is the mean amino acid residue weight of 110 Da, L is the path length (cm), and C is the protein concentration (g/mL). In the aromatic region (240–320 nm) of the CD spectrum, results were expressed as molar ellipticity (the average molecular masses of RpII, RTX-III, and RTX-VI are 5378, 5287, and 5240 Da, respectively). The secondary structure contents were determined according to the method of Provencher and Glöckner, using their CONTIN program.

[5] = amplitude of toxin-induced effect at 30 ms (I30ms), Hill fit, Xenopus oocytes, means ± sem, n ≥ 5

T2 sequence (Q9WTU3 whole entry): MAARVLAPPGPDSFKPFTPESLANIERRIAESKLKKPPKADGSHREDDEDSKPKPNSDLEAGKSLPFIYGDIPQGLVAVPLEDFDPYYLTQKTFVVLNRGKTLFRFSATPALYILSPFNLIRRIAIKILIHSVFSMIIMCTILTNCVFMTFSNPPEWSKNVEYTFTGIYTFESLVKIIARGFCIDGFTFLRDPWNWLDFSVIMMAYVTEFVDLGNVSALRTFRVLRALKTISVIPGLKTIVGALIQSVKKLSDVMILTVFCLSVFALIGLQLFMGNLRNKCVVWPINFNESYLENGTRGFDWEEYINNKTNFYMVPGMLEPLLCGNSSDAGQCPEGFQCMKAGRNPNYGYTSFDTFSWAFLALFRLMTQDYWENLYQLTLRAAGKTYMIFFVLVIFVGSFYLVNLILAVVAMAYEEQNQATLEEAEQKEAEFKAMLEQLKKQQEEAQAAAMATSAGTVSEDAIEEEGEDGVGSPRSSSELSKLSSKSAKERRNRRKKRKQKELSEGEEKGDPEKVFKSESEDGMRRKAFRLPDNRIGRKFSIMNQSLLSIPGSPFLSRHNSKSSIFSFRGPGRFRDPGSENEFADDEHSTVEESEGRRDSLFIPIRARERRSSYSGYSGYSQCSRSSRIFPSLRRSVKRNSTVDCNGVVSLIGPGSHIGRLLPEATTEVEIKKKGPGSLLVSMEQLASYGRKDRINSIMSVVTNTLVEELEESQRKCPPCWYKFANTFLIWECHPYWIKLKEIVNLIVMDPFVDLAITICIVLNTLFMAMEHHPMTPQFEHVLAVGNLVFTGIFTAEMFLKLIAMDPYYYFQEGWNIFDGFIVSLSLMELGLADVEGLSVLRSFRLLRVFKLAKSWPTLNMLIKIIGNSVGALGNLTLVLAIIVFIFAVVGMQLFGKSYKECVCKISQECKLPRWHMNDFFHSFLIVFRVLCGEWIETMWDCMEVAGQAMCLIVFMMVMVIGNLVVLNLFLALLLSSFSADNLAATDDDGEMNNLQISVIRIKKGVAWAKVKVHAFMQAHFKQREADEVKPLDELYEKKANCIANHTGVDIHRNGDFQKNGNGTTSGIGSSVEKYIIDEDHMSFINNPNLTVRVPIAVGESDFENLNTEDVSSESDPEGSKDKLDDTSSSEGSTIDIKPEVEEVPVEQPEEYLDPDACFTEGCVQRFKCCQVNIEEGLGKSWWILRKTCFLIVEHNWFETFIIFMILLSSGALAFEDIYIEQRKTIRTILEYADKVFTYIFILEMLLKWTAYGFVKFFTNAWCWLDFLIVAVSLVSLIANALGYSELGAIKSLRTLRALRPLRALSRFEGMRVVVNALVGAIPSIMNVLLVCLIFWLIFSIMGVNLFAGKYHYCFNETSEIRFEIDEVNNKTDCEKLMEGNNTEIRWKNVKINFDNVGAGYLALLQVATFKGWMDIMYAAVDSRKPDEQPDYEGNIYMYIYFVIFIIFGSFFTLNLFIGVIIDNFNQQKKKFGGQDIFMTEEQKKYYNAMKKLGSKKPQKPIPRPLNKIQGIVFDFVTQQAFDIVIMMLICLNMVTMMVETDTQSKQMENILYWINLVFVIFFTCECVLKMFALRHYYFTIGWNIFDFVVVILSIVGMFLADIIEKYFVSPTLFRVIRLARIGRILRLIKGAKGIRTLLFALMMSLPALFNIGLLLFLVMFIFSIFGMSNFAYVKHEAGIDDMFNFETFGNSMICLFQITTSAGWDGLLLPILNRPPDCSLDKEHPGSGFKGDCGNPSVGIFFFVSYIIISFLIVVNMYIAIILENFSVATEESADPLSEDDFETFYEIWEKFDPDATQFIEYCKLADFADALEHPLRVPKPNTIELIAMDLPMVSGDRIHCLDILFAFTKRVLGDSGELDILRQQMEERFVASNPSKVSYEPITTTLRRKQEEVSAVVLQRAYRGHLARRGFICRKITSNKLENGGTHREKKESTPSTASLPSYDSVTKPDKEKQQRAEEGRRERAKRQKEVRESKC
BgNaV1, sequence (O01306 1-2031): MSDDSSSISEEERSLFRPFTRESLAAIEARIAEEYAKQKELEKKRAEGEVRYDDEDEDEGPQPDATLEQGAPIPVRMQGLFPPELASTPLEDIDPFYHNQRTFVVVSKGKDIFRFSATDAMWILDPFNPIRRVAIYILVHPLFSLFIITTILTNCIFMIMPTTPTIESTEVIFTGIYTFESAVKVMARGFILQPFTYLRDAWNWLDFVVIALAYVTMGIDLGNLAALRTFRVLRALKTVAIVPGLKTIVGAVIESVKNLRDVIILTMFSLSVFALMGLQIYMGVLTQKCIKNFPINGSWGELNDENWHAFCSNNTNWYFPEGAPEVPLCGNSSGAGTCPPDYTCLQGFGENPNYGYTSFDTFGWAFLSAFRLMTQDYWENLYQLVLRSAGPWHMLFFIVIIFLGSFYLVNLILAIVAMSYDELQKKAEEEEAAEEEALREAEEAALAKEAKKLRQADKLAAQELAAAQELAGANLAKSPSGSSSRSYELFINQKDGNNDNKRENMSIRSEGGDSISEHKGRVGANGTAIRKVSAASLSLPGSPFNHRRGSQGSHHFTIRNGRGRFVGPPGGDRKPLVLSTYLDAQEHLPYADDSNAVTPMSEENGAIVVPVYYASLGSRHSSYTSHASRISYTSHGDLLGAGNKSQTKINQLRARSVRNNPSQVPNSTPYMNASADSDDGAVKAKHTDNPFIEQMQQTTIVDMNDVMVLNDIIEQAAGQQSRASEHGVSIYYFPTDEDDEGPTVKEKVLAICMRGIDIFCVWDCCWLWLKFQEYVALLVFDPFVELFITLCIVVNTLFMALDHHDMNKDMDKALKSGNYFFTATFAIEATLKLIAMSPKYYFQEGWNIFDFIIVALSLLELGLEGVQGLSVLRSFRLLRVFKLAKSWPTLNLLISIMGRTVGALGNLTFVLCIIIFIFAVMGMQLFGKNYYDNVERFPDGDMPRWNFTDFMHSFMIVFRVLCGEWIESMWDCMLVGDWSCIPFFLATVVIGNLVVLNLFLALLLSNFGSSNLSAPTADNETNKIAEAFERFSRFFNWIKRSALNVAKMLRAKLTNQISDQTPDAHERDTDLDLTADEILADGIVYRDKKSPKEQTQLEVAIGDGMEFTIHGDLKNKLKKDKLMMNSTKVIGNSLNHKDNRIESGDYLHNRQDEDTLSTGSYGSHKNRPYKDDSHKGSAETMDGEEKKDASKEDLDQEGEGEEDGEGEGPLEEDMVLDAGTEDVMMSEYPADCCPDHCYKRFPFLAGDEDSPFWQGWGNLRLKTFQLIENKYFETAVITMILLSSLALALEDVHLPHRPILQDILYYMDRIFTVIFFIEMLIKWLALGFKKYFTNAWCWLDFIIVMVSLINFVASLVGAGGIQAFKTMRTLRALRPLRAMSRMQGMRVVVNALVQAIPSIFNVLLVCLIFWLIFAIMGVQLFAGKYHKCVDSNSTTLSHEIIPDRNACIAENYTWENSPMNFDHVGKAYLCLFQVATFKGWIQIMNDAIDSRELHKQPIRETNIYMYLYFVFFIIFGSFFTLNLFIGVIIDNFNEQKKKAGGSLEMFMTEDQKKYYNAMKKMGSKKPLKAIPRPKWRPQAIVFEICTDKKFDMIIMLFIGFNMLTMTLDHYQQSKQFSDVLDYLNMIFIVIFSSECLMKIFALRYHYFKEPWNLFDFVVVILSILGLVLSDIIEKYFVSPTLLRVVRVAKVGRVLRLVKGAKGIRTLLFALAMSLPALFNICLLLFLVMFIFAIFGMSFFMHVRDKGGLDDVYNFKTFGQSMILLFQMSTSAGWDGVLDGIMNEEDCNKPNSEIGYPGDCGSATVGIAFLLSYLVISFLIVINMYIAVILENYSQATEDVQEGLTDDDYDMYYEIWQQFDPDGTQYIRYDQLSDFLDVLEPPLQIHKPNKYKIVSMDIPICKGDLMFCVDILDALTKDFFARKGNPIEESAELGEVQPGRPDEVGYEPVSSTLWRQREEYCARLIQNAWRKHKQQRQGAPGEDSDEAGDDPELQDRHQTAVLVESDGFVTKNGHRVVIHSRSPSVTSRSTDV

Substance | EC50 (rNaV1.2; [5]) | EC50 (mNaV1.6) | EC50 (BgNaV1) | toxicity in mice (in words) (mice [1]; CD-1 mice) | LD50 (mice [2]; ref [8]) | half-maximal effective concentration (EC50), NaV1.2 (rNaV1.2; [5]) | effect on NaV1.3 current (in words) (rNaV1.3) | modulation of NaV channels (in words) [3] | phyla selectivity (in words) [3] | α-helices (in words) [4] | Unordered [4] | α-Helices αD [4] | α-Helices αR [4] | α-Helices αtot [4] | LD50 (mice [2]; ref [10]) | effect on NaV1.2 current (in words) (rNaV1.2; Xenopus oocytes) | relative activity on NaV1.2 (in words) (rNaV1.2; compared to δ-SHTX-Hcr1f (Figure 6, Table 3)) | relative potency on NaV1.6 (in words) (mNaV1.6; compared with RTX-III) | relative potency on BgNaV1 (in words) (BgNaV1; compared with RTX-III) | LD50 (mice [1]; mice)
ASCKCDDDGPDVRSATFTGTVDFWNCNEGWEKCTAVYTPVASCCRKKK-NH2 (disulfide 3-43, 5-33, 26-44) [δ-SHTX-Hcr1f] | 0.0795 ± 0.0043 µM | 0.183 ± 0.0082 µM | 0.226 ± 0.0123 µM | consistent with the previously reported data for RpII | 4.2 mg/kg | – | – | – | – | – | – | – | – | – | – | – | – | – | – | –
H-GNCKCDDEGPYVRTAPLTGYVDLGYCNEGWEKCASYYSPIAECCRKKK-NH2 (disulfide 3-43, 5-33, 26-44) [RTX-III] | – | 0.382 ± 0.0058 µM | 0.978 ± 0.0623 µM | – | – | Not active | exhibited substantial activating effects on NaV1.3; also recorded: acted similarly on NaV1.3 | modulate insect, arachnid (BgNaV1, VdNaV1), and mammalian CNS NaV channels (NaV1.1–NaV1.3, NaV1.6) but not skeletal muscle (NaV1.4), cardiac (NaV1.5), or PNS (NaV1.8) channels; also recorded: did not affect currents of skeletal muscle NaV1.4, cardiac NaV1.5, and PNS NaV1.8 channels | not to be phyla-selective; also recorded: non-phyla-selective | practically absent | 40.1 percentage | 0.4 percentage | 0.1 percentage | 0.5 percentage | 0.0025 mg/kg | – | – | – | – | –
I: TAPLTGYVDLGYCNEGWEKCASYYSPIAECCRKKK-NH2 / II: GNCKCDDEGPYV-OH (disulfide I:13-I:31, I:20-II:5, I:30-II:3) [RTX-VI] | 0.121 ± 0.0193 µM | 0.282 ± 0.007 µM | 0.761 ± 0.0256 µM | – | – | – | abolished its effect on the NaV1.3 current | modulate insect, arachnid (BgNaV1, VdNaV1), and mammalian CNS NaV channels (NaV1.1–NaV1.3, NaV1.6) but not skeletal muscle (NaV1.4), cardiac (NaV1.5), or PNS (NaV1.8) channels; also recorded: did not affect currents of skeletal muscle NaV1.4, cardiac NaV1.5, and PNS NaV1.8 channels | not to be phyla-selective; also recorded: non-phyla-selective | practically absent | 38.3 percentage | 0.3 percentage | 0.0 percentage | 0.3 percentage | – | modulated another subtype of the CNS channels, NaV1.2; also recorded: enhanced current through NaV1.2 | lower activity on the NaV1.2 subtype compared to δ-SHTX-Hcr1f | more potent inhibitor of both NaV1.6 and BgNaV1 channels than RTX-III | more potent inhibitor of both NaV1.6 and BgNaV1 channels than RTX-III | > 10 mg/kg
